Values after ≈ are worked out from the molar mass of the structure shown.
Legend:
Assay type in all cases: functional
Bacillus subtilis = experiment: Antimicrobial activity against Bacillus subtilis ATCC 6633 after 24 hrs by broth microdilution method; settings: ATCC 6633, 24 h
Candida albicans = experiment: Antifungal activity against Candida albicans ATCC 44506 after 24 hrs by broth microdilution method; settings: ATCC 44506, 24 h
Cryptococcus neoformans = experiment: Antifungal activity against Cryptococcus neoformans ATCC 32045 after 48 hrs by broth microdilution method; settings: ATCC 32045, 48 h

| MIC (Bacillus subtilis) [mg/L] | MIC (Candida albicans) [mg/L] | MIC (Cryptococcus neoformans) [mg/L] | SMILES |
| --- | --- | --- | --- |
| 3.1 (≈ 6.38 µM) | 1.6 (≈ 3.29 µM) | 3.1 (≈ 6.38 µM) | O=C1N[C@@H](c2c[nH]c3cc(Br)ccc23)CN=C1c1c[nH]c2cc(Br)ccc12 [HAMACANTHIN A] |
| 1.6 (≈ 3.29 µM) | 6.2 (≈ 12.8 µM) | 6.2 (≈ 12.8 µM) | O=C1NC[C@H](c2c[nH]c3cc(Br)ccc23)N=C1c1c[nH]c2cc(Br)ccc12 [HAMACANTHIN B] |

Reference: ChEMBL document CHEMBL1148075, “Hamacanthins A and B, new antifungal bis indole alkaloids from the deep-water marine sponge, Hamacantha sp” (1994)
